Laboratory results: patent publication US20250049970A1, “DLL3 TARGETING PEPTIDES AND CONSTRUCTS THEREOF” (MARIANA ONCOLOGY INC., priority 2023, published 2025)
*1 amine or outer side, *2 acyl side, *3 side chain or, on linkers, in order; H or OH if unused. Where a SMILES comes first, the peptide text is derived from it. Bridges are numbered along the chain shown (N, C = ends). [ ]: non-standard residue; d: D form. The star is where a group is joined. Ala(piperidin-4-yl) = O=C([C@H](CC1CCN([*:3])CC1)N[*:1])[*:2]; DOTA = O=C(O)CN1CCN(CC(=O)O)CCN(CC(=O)*)CCN(CC(=O)O)CC1; Trp(7-aza) = N[C@@H](Cc1c[nH]c2ncccc12)C(=O)O; NMeW = CN[C@@H](Cc1c[nH]c2ccccc12)C(=O)O; 1Nal = N[C@@H](Cc1cccc2ccccc12)C(=O)O; 2Nal = N[C@@H](Cc1ccc2ccccc2c1)C(=O)O; NMetBuAla = CN[C@@H](CC(C)(C)C)C(=O)O; tBuAla = CC(C)(C)C[C@H](N)C(=O)O; NMeD = CN[C@@H](CC(=O)O)C(=O)O; Chg = N[C@H](C(=O)O)C1CCCCC1; αMeP = C[C@@]1(C(=O)O)CCCN1; Nva = CCC[C@H](N)C(=O)O; CH2 = C([*:1])[*:2]

target: T1, DLL3 (Homo sapiens, UniProt Q9NYJ7); assay: SPR KD, biotinylated human DLL3 on streptavidin chip (Table 8); parameters: biotin (biotinylated); conditions: biotinylated human DLL3 on streptavidin sensor chip, 25° C., 1:1 binding model; read-out: SPR KD
T1 sequence (Q9NYJ7 27-618): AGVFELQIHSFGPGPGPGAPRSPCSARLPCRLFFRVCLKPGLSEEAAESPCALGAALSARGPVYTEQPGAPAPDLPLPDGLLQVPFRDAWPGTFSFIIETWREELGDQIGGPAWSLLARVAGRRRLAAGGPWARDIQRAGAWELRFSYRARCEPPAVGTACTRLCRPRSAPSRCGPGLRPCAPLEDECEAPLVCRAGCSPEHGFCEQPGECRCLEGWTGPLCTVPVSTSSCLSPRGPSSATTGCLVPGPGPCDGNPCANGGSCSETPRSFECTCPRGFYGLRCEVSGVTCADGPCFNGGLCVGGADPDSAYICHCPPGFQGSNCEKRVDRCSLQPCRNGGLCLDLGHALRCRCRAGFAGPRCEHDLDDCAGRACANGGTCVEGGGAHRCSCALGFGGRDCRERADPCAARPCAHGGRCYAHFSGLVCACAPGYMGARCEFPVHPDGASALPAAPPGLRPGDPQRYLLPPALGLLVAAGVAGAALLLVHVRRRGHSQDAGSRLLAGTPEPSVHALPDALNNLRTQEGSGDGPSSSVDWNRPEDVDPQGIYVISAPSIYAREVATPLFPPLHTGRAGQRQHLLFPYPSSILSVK
Text: Biotinylated target ligand human DLL3 was immobilized on a streptavidin sensor chip. A reference surface was set up for nonspecific binding and refractive index changes. […] Sensorgram curves were fitted with 1:1 binding model, and affinity and kinetic parameters were obtained using Biacore Insight evaluation 4.0. software.

Kd [nM]	Structure (SMILES)
< 1	CC(=O)N[C@@H](Cc1c[nH]c2ccccc12)C(=O)N[C@H](C(=O)N[C@@H](CC(C)(C)C)C(=O)N[C@H]1CSSC[C@@H](C(=O)N[C@@H](Cc2c[nH]c3ccccc23)C(=O)N2CCC[C@H]2C(N)=O)NC(=O)[C@H](CC(=O)O)NC(=O)[C@H](CCCCNC(=O)CN2CCN(CC(=O)O)CCN(CC(=O)O)CCN(CC(=O)O)CC2)NC(=O)[C@H](Cc2ccc3ccccc3c2)NC(=O)[C@H](CC(N)=O)NC(=O)C(CN2CCOCC2)NC1=O)[C@@H](C)O (single isomer, unassigned) [compound 305, Ac-W-T-(t-Bu-Ala)-C(3)-[3-(1-morpholinyl)-Ala]-N-(2Nal)-Lys(DOTA)-D-C(3)-W-P-CONH2]
10 to 100	CC[C@H](C)[C@H](NC(=O)[C@@H](NC(=O)[C@H](Cc1c[nH]c2ncccc12)NC(C)=O)[C@@H](C)O)C(=O)N[C@H]1CSSC[C@@H](C(=O)N[C@@H](Cc2c[nH]c3ccccc23)C(=O)N2CCC[C@H]2C(N)=O)NC(=O)[C@H](CC(=O)O)NC(=O)[C@H](Cc2cnc[nH]2)NC(=O)[C@H](Cc2c[nH]c3ccccc23)NC(=O)[C@H](CC(N)=O)NC(=O)[C@H](CC(N)=O)NC1=O [compound 24, Ac-(7Aza-W)-T-I-C(3)-N-N-W-H-D-C(3)-W-P-CONH2] (Ac-[Trp(7-aza)]TICNNWHDCWP-NH2; disulfide 4-10)
< 1	CC(=O)N[C@@H](Cc1c[nH]c2ccccc12)C(=O)N[C@H](C(=O)N(C)[C@@H](CC(C)(C)C)C(=O)N[C@H]1CSSC[C@@H](C(=O)N[C@@H](Cc2c[nH]c3ccccc23)C(=O)N2CCC[C@H]2C(N)=O)NC(=O)[C@H](CC(=O)O)NC(=O)[C@H](CCCCNC(=O)CN2CCN(CC(=O)O)CCN(CC(=O)O)CCN(CC(=O)O)CC2)NC(=O)[C@H](Cc2ccc3ccccc3c2)NC(=O)[C@H](CC(N)=O)NC(=O)[C@H](CC2CCNCC2)NC1=O)[C@@H](C)O [compound 419, Ac-W-T-(NMe-tBuAla)-C(3)-[3-(4piperdinyl)-Ala]-N-(2Nal)-Lys(DOTA)-D-C(3)-W-P-CONH2] (Ac-WT[NMetBuAla]C[Ala(piperidin-4-yl)]N[2Nal]K(DOTA)DCWP-NH2; disulfide 4-10)
< 1	CC(=O)N[C@@H](Cc1c[nH]c2ccccc12)C(=O)N[C@H](C(=O)N[C@@H](CC(C)(C)C)C(=O)N[C@H]1CSCSC[C@@H](C(=O)N[C@@H](Cc2c[nH]c3ccccc23)C(=O)N2CCC[C@@]2(C)C(=O)O)NC(=O)[C@H](CC(=O)O)NC(=O)[C@H](CCCCNC(=O)CN2CCN(CC(=O)O)CCN(CC(=O)O)CCN(CC(=O)O)CC2)NC(=O)[C@H](Cc2ccc3ccccc3c2)NC(=O)[C@H](CC(N)=O)NC(=O)[C@H](CC2CCNCC2)NC1=O)[C@@H](C)O [compound 436, Ac-W-T-(t-Bu-Ala)-C(1)-[3-(4-piperidinyl)-Ala]-N-(2Nal)-Lys(DOTA)-D-C(1)-W-(aMe-P)-COOH] (Ac-WT[tBuAla]C[Ala(piperidin-4-yl)]N[2Nal]K(DOTA)DCW[αMeP]-OH; linker 4-10 via CH2)
10 to 100	CSCC[C@H](NC(C)=O)C(=O)N[C@@H](Cc1c[nH]c2ccccc12)C(=O)N[C@H](C(=O)N[C@@H](Cc1ccc2ccccc2c1)C(=O)N[C@H]1CSSC[C@@H](C(=O)N[C@@H](Cc2c[nH]c3ccccc23)C(=O)N2CCC[C@H]2C(N)=O)NC(=O)[C@H](CC(=O)O)NC(=O)[C@H](Cc2cnc[nH]2)NC(=O)[C@H](Cc2c[nH]c3ccccc23)NC(=O)[C@H](CC(N)=O)NC(=O)[C@H](CC(N)=O)NC1=O)[C@@H](C)O [compound 46, Ac-M-W-T-(2Nal)-C(3)-N-N-W-H-D-C(3)-W-P-CONH2] (Ac-MWT[2Nal]CNNWHDCWP-NH2; disulfide 5-11)
100 to 300	CC[C@H](C)[C@H](NC(=O)[C@@H](NC(=O)[C@H](Cc1c[nH]c2ccccc12)NC(=O)[C@H](CCSC)NC(C)=O)[C@@H](C)O)C(=O)N[C@H]1CSSC[C@@H](C(=O)N[C@@H](Cc2c[nH]c3ccccc23)C(=O)N2CCC[C@H]2C(N)=O)NC(=O)[C@H](CC(=O)O)NC(=O)[C@@H](C)NC(=O)[C@H](Cc2c[nH]c3ccccc23)NC(=O)[C@H](CC(N)=O)NC(=O)[C@H](CC(N)=O)NC1=O [compound 72] (Ac-MWTICNNW[dA]DCWP-NH2; disulfide 5-11)
10 to 100	CC[C@H](C)[C@H](NC(=O)[C@@H](NC(=O)[C@H](Cc1cccc2ccccc12)NC(C)=O)[C@@H](C)O)C(=O)N[C@H]1CSSC[C@@H](C(=O)N[C@@H](Cc2c[nH]c3ccccc23)C(=O)N2CCC[C@H]2C(N)=O)NC(=O)[C@H](CC(=O)O)NC(=O)[C@H](Cc2cnc[nH]2)NC(=O)[C@H](Cc2c[nH]c3ccccc23)NC(=O)[C@H](CC(N)=O)NC(=O)[C@H](CC(N)=O)NC1=O [compound 25, Ac-(1Nal)-T-I-C(3)-N-N-W-H-D-C(3)-W-P-CONH2] (Ac-[1Nal]TICNNWHDCWP-NH2; disulfide 4-10)
1 to 10	CSCC[C@H](NC(C)=O)C(=O)N[C@@H](Cc1c[nH]c2ccccc12)C(=O)N[C@H](C(=O)N[C@H](C(=O)N[C@H]1CSSC[C@@H](C(=O)N[C@@H](Cc2c[nH]c3ccccc23)C(=O)N2CCC[C@H]2C(N)=O)NC(=O)[C@H](CC(=O)O)NC(=O)[C@H](Cc2cnc[nH]2)NC(=O)[C@H](Cc2c[nH]c3ccccc23)NC(=O)[C@H](CC(N)=O)NC(=O)[C@H](CC(N)=O)NC1=O)C1CCCCC1)[C@@H](C)O [compound 44, Ac-M-W-T-(Chg)-C(3)-N-N-W-H-D-C(3)-W-P-CONH2] (Ac-MWT[Chg]CNNWHDCWP-NH2; disulfide 5-11)
< 1	CC[C@H](C)[C@H](NC(=O)[C@@H](NC(=O)[C@H](Cc1c[nH]c2ccccc12)NC(C)=O)[C@@H](C)O)C(=O)N[C@H]1CSSC[C@@H](C(=O)N[C@@H](Cc2c[nH]c3ccccc23)C(=O)N2CCC[C@H]2C(=O)N[C@H](CCCCNC(=O)CN2CCN(CC(=O)O)CCN(CC(=O)O)CCN(CC(=O)O)CC2)C(N)=O)NC(=O)[C@H](CC(=O)O)NC(=O)[C@H](Cc2cnc[nH]2)NC(=O)[C@H](Cc2ccc3ccccc3c2)NC(=O)[C@H](CC(N)=O)NC(=O)[C@H](CCCCNC(=O)CN2CCN(CC(=O)O)CCN(CC(=O)O)CCN(CC(=O)O)CC2)NC1=O [compound 247] (Ac-WTICK(DOTA)N[2Nal]HDCWP[dK](DOTA)-NH2; disulfide 4-10)
100 to 300	CC[C@H](C)[C@H](NC(=O)[C@@H](NC(=O)[C@H](Cc1c[nH]c2ccccc12)NC(C)=O)[C@@H](C)O)C(=O)N[C@H]1CSSC[C@@H](C(=O)N(C)[C@@H](Cc2c[nH]c3ccccc23)C(=O)N2CCC[C@H]2C(=O)O)NC(=O)[C@H](CC(=O)O)NC(=O)[C@H](Cc2c[nH]cn2)NC(=O)[C@H](Cc2c[nH]c3ccccc23)NC(=O)[C@H](CC(N)=O)NC(=O)[C@H](CC(N)=O)NC1=O [compound 389, Ac-W-T-I-C(3)-N-N-W-H-D-C(3)-(NmeW)-P-CONH2] (Ac-WTICNNWHDC[NMeW]P-OH; disulfide 4-10)
1 to 10	CC(=O)N[C@@H](Cc1c[nH]c2ccccc12)C(=O)N[C@H](C(=O)N[C@H](C(=O)N[C@H]1CSSC[C@@H](C(=O)N[C@@H](Cc2c[nH]c3ccccc23)C(=O)N2CCC[C@H]2C(N)=O)NC(=O)[C@H](CC(=O)O)NC(=O)[C@H](CCCCNC(=O)CN2CCN(CC(=O)O)CCN(CC(=O)O)CCN(CC(=O)O)CC2)NC(=O)[C@H](Cc2ccc3ccccc3c2)NC(=O)[C@H](CC(N)=O)NC(=O)[C@H](CN2CCOCC2)NC1=O)C(C)(C)C)[C@@H](C)O (single isomer, unassigned) [compound 304, Ac-W-T-(Tbg)-C(3)-[3-(1-morpholinyl)-Ala]-N-(2Nal)-Lys(DOTA)-D-C(3)-W-P-CONH2]
100 to 300	CC[C@H](C)[C@H](NC(=O)[C@@H](NC(=O)[C@H](Cc1c[nH]c2ccccc12)NC(C)=O)[C@@H](C)O)C(=O)N[C@H]1CSSC[C@@H](C(=O)N[C@@H](Cc2c[nH]c3ccccc23)C(=O)N2CCC[C@H]2C(N)=O)NC(=O)[C@H](CC(=O)O)N(C)C(=O)[C@H](Cc2cnc[nH]2)NC(=O)[C@H](Cc2c[nH]c3ccccc23)NC(=O)[C@H](CC(N)=O)NC(=O)[C@H](CC(N)=O)NC1=O [compound 388, Ac-W-T-I-C(3)-N-N-W-H-(NmeD)-C(3)-W-P-CONH2] (Ac-WTICNNWH[NMeD]CWP-NH2; disulfide 4-10)
1 to 10	CC[C@@H](C)[C@H](NC(=O)[C@@H](NC(=O)[C@H](Cc1c[nH]c2ccccc12)NC(C)=O)[C@@H](C)O)C(=O)N[C@H]1CSSC[C@@H](C(=O)N[C@@H](Cc2c[nH]c3ccccc23)C(=O)N2CCC[C@H]2C(N)=O)NC(=O)[C@H](CC(=O)O)NC(=O)[C@H](CCCCNC(=O)CN2CCN(CC(=O)O)CCN(CC(=O)O)CCN(CC(=O)O)CC2)NC(=O)[C@H](Cc2ccc3ccccc3c2)NC(=O)[C@H](CC(N)=O)NC(=O)C(CN2CCOCC2)NC1=O (single isomer, unassigned) [compound 307, Ac-W-T-(Allo-Ile)-C(3)-[3-(1-morpholinyl)-Ala]-N-(2Nal)-Lys(DOTA)-D-C(3)-W-P-CONH2]
10 to 100	CCC[C@H](NC(C)=O)C(=O)N[C@@H](Cc1c[nH]c2ccccc12)C(=O)N[C@H](C(=O)N[C@H](C(=O)N[C@H]1CSSC[C@@H](C(=O)N[C@@H](Cc2c[nH]c3ccccc23)C(=O)N2CCC[C@H]2C(N)=O)NC(=O)[C@H](CC(=O)O)NC(=O)[C@H](Cc2cnc[nH]2)NC(=O)[C@H](Cc2c[nH]c3ccccc23)NC(=O)[C@H](CC(N)=O)NC(=O)[C@H](CC(N)=O)NC1=O)[C@@H](C)CC)[C@@H](C)O [compound 440, Ac-(L-Nva)-W-T-I-C(3)-N-N-W-H-D-C(3)-W-P-CONH2] (Ac-[Nva]WTICNNWHDCWP-NH2; disulfide 5-11)
